From patent publication US9833497B2, “Human originated EGF domain proteins and use of the same” (CHENGDU SOURCEBIO LIMITED-LIABILITY COMPANY, priority 2013, dated 2017)

Tests used:
Type in all cases: cell-based
Serratia marcescens = experiment: MIC against Gram-negative bacteria: Serratia marcescens; conditions: for MIC: S. marcescens
Method in brief: (§1)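 LB broth cultures at McFarland 0.5, spun down, resuspended, diluted to 5×10^5 CFU/mL final. Two-fold serial dilutions of purified human EGF domain proteins, triplicate. 37° C, 175 rpm shaking. Endpoint: no visible growth.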

Proteus vulgaris = experiment: MIC against Gram-negative bacteria: Proteus vulgaris; conditions: for MIC: P. vulgaris
Method in brief: as §1

E. coli BL21 = experiment: MIC against Gram-negative bacteria: E. coli BL21
Method in brief: as §1

E. coli DH5α = experiment: Antibacterial activity: MIC and growth curve against E. coli DH5α in 96-well plate; conditions: minimal inhibitory concentration against E. coli DH5α; 96-well plate, 5×10^5 CFU/mL, 37° C., judged after 8 h
Method in brief: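 Log-phase bacteria (OD600 ~0.5) resuspended in LB at 5×10^5 CFU/mL, exposed to recombinant protein at 50, 25, 12.5 μg/mL final in triplicate, 37 °C shaking at 175 rpm. OD600 read every 30 min; MIC is lowest concentration showing no growth.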

Aeromonas hydrophila = experiment: MIC against Gram-negative bacteria: Aeromonas hydrophila; conditions: for MIC: A. hydrophila
Method in brief: as §1

Moraxella catarrhalis = experiment: MIC against Gram-negative bacteria: Moraxella catarrhalis; conditions: for MIC: M. catarrhalis
Method in brief: as §1

Klebsiella pneumonia = experiment: MIC against Gram-negative bacteria: Klebsiella pneumonia; conditions: for MIC: K. pneumonia
Method in brief: as §1

Proteus mirabilis = experiment: MIC against Gram-negative bacteria: Proteus mirabilis; conditions: for MIC: P. mirabilis
Method in brief: as §1

Pseudomonas aeruginosa = experiment: MIC against Gram-negative bacteria: Pseudomonas aeruginosa; conditions: for MIC: P. aeruginosa
Method in brief: as §1

Citrobacter diversus = experiment: MIC against Gram-negative bacteria: Citrobacter diversus; conditions: for MIC: C. diversus
Method in brief: as §1

Enterobacter cloacae = experiment: MIC against Gram-negative bacteria: Enterobacter cloacae; conditions: for MIC: E. cloacae
Method in brief: as §1

[1] = 96-well plate, 5×10^5 CFU/mL, 37° C., 10 h
[2] = Serratia marcescens, 96-well plate, 5×10^5 CFU/mL, 37° C., 10 h
[3] = Proteus vulgaris, 96-well plate, 5×10^5 CFU/mL, 37° C., 10 h
[4] = E. coli BL21, 96-well plate, 5×10^5 CFU/mL, 37° C., 10 h
[5] = Aeromonas hydrophila, 96-well plate, 5×10^5 CFU/mL, 37° C., 10 h
[6] = Moraxella catarrhalis, 96-well plate, 5×10^5 CFU/mL, 37° C., 10 h
[7] = Klebsiella pneumonia, 96-well plate, 5×10^5 CFU/mL, 37° C., 10 h
[8] = Proteus mirabilis, 96-well plate, 5×10^5 CFU/mL, 37° C., 10 h
[9] = Pseudomonas aeruginosa, 96-well plate, 5×10^5 CFU/mL, 37° C., 10 h
[10] = Citrobacter diversus, 96-well plate, 5×10^5 CFU/mL, 37° C., 10 h
[11] = Enterobacter cloacae, 96-well plate, 5×10^5 CFU/mL, 37° C., 10 h
[12] = E. coli BL21, 10 h cultivation at 37° C.
[13] = 10 h cultivation at 37° C., 5×10^5 CFU/mL, two-fold serial dilution

Substance	MIC (E. coli DH5α) [mg/L]	MIC (Serratia marcescens; 10 h cultivation at 37° C.) [mg/L]	MIC (Proteus vulgaris; 10 h cultivation at 37° C.) [mg/L]	MIC (E. coli BL21; [12]) [mg/L]	MIC (Aeromonas hydrophila; 10 h cultivation at 37° C.) [mg/L]	MIC (Moraxella catarrhalis; 10 h cultivation at 37° C.) [mg/L]	MIC (Klebsiella pneumonia; 10 h cultivation at 37° C.) [mg/L]	MIC (Proteus mirabilis; 10 h cultivation at 37° C.) [mg/L]	MIC (Pseudomonas aeruginosa; 10 h cultivation at 37° C.) [mg/L]	MIC (Citrobacter diversus; 10 h cultivation at 37° C.) [mg/L]	MIC (Enterobacter cloacae; 10 h cultivation at 37° C.) [mg/L]	also measured
PRT479 (AAMACSHQRCHGHGRCARRDPGQMEAFLHLWPDGSLGDWKSFSCHCYWGWAGPTCQ; listed as Homo sapiens)	25											MIC against S. marcescens (Serratia marcescens; [1]): 25 mg/L; MIC against P. vulgaris (Proteus vulgaris; [1]): 50 mg/L; MIC against E. coli BL21 (E. coli BL21; [1]): 50 mg/L; MIC against A. hydrophila (Aeromonas hydrophila; [1]): 50 mg/L; MIC against M. catarrhalis (Moraxella catarrhalis; [1]): 12.5 mg/L; MIC against K. pneumonia (Klebsiella pneumonia; [1]): 12.5 mg/L; MIC against P. mirabilis (Proteus mirabilis; [1]): 25 mg/L; MIC against P. aeruginosa (Pseudomonas aeruginosa; [1]): 25 mg/L; MIC against C. diversus (Citrobacter diversus; [1]): 25 mg/L; MIC against E. cloacae (Enterobacter cloacae; [1]): 25 mg/L
PRT1330 (VVDFCKQDNGGCAKVARCSQKGTKVSCSCQKGYKGDGHSCT; listed as Homo sapiens)	12.5											MIC against S. marcescens (Serratia marcescens; [2]): 50 mg/L; MIC against P. vulgaris (Proteus vulgaris; [3]): 25 mg/L; MIC against E. coli BL21 (E. coli BL21; [4]): 12.5 mg/L; MIC against A. hydrophila (Aeromonas hydrophila; [5]): 12.5 mg/L; MIC against M. catarrhalis (Moraxella catarrhalis; [6]): 25 mg/L; MIC against K. pneumonia (Klebsiella pneumonia; [7]): 12.5 mg/L; MIC against P. mirabilis (Proteus mirabilis; [8]): 12.5 mg/L; MIC against P. aeruginosa (Pseudomonas aeruginosa; [9]): 12.5 mg/L; MIC against C. diversus (Citrobacter diversus; [10]): 50 mg/L; MIC against E. cloacae (Enterobacter cloacae; [11]): 50 mg/L
PRT1005 (LMDLCAQKPCPRNSHCLQTGPSFHCLCLQGWTGPLCN; listed as Homo sapiens)	50	25	50	12.5	50	12.5	12.5	25	50	25	25	
PRT1276 (LTCNYGNGGCQHTCDDTEQGPRCGCHIKFVLHTDGKTCI; listed as Homo sapiens)	50											MIC against S. marcescens (Serratia marcescens; [2]): 50 mg/L; MIC against P. vulgaris (Proteus vulgaris; [3]): 12.5 mg/L; MIC against E. coli BL21 (E. coli BL21; [4]): 12.5 mg/L; MIC against A. hydrophila (Aeromonas hydrophila; [5]): 12.5 mg/L; MIC against M. catarrhalis (Moraxella catarrhalis; [6]): 12.5 mg/L; MIC against K. pneumonia (Klebsiella pneumonia; [7]): 12.5 mg/L; MIC against P. mirabilis (Proteus mirabilis; [8]): 50 mg/L; MIC against P. aeruginosa (Pseudomonas aeruginosa; [9]): 50 mg/L; MIC against C. diversus (Citrobacter diversus; [10]): 50 mg/L; MIC against E. cloacae (Enterobacter cloacae; [11]): 50 mg/L
PRT1038 (FDMPCDETLCSADSFCVNDYTWGGSRCQCTLGKGGESCS; listed as Homo sapiens)	50	25	12.5	12.5	12.5	50	50	50	50	25	50	
PRT1042 (SGFFCPSTHSCQNGGVFQTPQGSCSCPPGWMGTICS; listed as Homo sapiens)	25	50	25	50	50	12.5	25	50	12.5	50	50	
PRT1152 (HASPCSLMKCGNGGTCIESGTSVYCNCTTGWKGSFCT; listed as Homo sapiens)	12.5											MIC S. marcescens (Serratia marcescens; [13]): 50 mg/L; MIC P. vulgaris (Proteus vulgaris; [13]): 25 mg/L; MIC E. coli BL21 (E. coli BL21; [13]): 25 mg/L; MIC A. hydrophila (Aeromonas hydrophila; [13]): 12.5 mg/L; MIC M. catarrhalis (Moraxella catarrhalis; [13]): 12.5 mg/L; MIC K. pneumonia (Klebsiella pneumonia; [13]): 25 mg/L; MIC P. mirabilis (Proteus mirabilis; [13]): 12.5 mg/L; MIC P. aeruginosa (Pseudomonas aeruginosa; [13]): 12.5 mg/L; MIC C. diversus (Citrobacter diversus; [13]): 12.5 mg/L; MIC E. cloacae (Enterobacter cloacae; [13]): 12.5 mg/L
PRT983 (VARSCRELQCPVGVPCQQTPRGPRCACPPGLSGPSCR; listed as Homo sapiens)	25	25	12.5	12.5	25	12.5	50	50	25	50	12.5	
PRT915 (ASSPCLGGNPCYNQGTCEPTSESPFYRCLCPAKFNGLLCH; listed as Homo sapiens)	25	25	25	25	25	50	25	25	50	25	12.5	
PRT3 (DGDQCESNPCLNGGSCKDDINSYECWCPFGFEGKNCE; listed as Homo sapiens)	12.5											MIC (μg/mL) S. marcescens (Serratia marcescens; [2]): 12.5 µg/mL; MIC (μg/mL) P. vulgaris (Proteus vulgaris; [3]): 25 µg/mL; MIC (μg/mL) E. coli BL21 (E. coli BL21; [4]): 25 µg/mL; MIC (μg/mL) A. hydrophila (Aeromonas hydrophila; [5]): 25 µg/mL; MIC (μg/mL) M. catarrhalis (Moraxella catarrhalis; [6]): 12.5 µg/mL; MIC (μg/mL) K. pneumonia (Klebsiella pneumonia; [7]): 12.5 µg/mL; MIC (μg/mL) P. mirabilis (Proteus mirabilis; [8]): 12.5 µg/mL; MIC (μg/mL) P. aeruginosa (Pseudomonas aeruginosa; [9]): 25 µg/mL; MIC (μg/mL) C. diversus (Citrobacter diversus; [10]): 25 µg/mL; MIC (μg/mL) E. cloacae (Enterobacter cloacae; [11]): 12.5 µg/mL
